Laboratory results reported in ChEMBL document CHEMBL1201862, “PubChem BioAssay data set” (2004).
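Exposure lasted 48 hours, with cells grown in 96-well plates and compounds tested at five concentrations. The concentration for 50% growth inhibition is given as GI50.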 Activity calls are given as the source filed them. Rule as the data show it: active = GI50 up to about 1.1 µM and inactive = higher.

Legend:
Test in all cases: inhibition of tumour cell growth, NCI panel, 48 h
HOP-62 = tested on: HOP-62
K562 = tested on: K562
EKVX = tested on: EKVX
786-0 = tested on: 786-0
MDA-MB-231 = tested on: MDA-MB-231
OVCAR-4 = tested on: OVCAR-4
BT-549 = tested on: BT-549
SNB-19 = tested on: SNB-19
HOP-92 = tested on: HOP-92
PC-3 = tested on: PC-3
SF-295 = tested on: SF-295
NCI-H23 = tested on: NCI-H23
SR = tested on: SR
KM12 = tested on: KM12
LOX IMVI = tested on: LOX IMVI
U-251 = tested on: U-251
HCC 2998 = tested on: HCC 2998
DU-145 = tested on: DU-145

| Compound | GI50 (HOP-62) | GI50 (K562) | GI50 (EKVX) | GI50 (786-0) | GI50 (MDA-MB-231) | GI50 (OVCAR-4) | GI50 (BT-549) | GI50 (SNB-19) | GI50 (HOP-92) | GI50 (PC-3) | GI50 (SF-295) | GI50 (NCI-H23) | GI50 (SR) | GI50 (KM12) | GI50 (LOX IMVI) | GI50 (U-251) | GI50 (HCC 2998) | GI50 (DU-145) |
| --- | --- | --- | --- | --- | --- | --- | --- | --- | --- | --- | --- | --- | --- | --- | --- | --- | --- | --- |
| NCCCCCCn1c(-c2ccc(Br)cc2)cs/c1=N\c1ccccc1 | 16.8 µM (inactive) | 2.01 µM (inactive) | 13.8 µM (inactive) | 10.2 µM (inactive) | 14.4 µM (inactive) | 12.7 µM (inactive) | 13.8 µM (inactive) | 14.9 µM (inactive) | 12.7 µM (inactive) | 5.86 µM (inactive) | 16 µM (inactive) | 14.7 µM (inactive) | 3.51 µM (inactive) | 5.74 µM (inactive) | 2.53 µM (inactive) | 7.89 µM (inactive) | 3.75 µM (inactive) | 13.5 µM (inactive) |
| Clc1ccc(OCC2NC3C=CC32)cn1 (centres undefined) | > 100 µM (inactive) | 59.3 µM (inactive) | 24.9 µM (inactive) | > 100 µM (inactive) | > 100 µM (inactive) | > 100 µM (inactive) | > 100 µM (inactive) | > 100 µM (inactive) | 67 µM (inactive) | > 100 µM (inactive) | > 100 µM (inactive) | > 100 µM (inactive) | 39.8 µM (inactive) | > 100 µM (inactive) | > 100 µM (inactive) | > 100 µM (inactive) | > 100 µM (inactive) | > 100 µM (inactive) |
| O=C(Cc1ccc(Cl)c(Cl)c1)NCC1(N2CCCCC2)CCCCC1 | > 100 µM (inactive) | 50.1 µM (inactive) | 59.8 µM (inactive) | 39.3 µM (inactive) | 58.5 µM (inactive) | 64 µM (inactive) | 55.5 µM (inactive) | > 100 µM (inactive) | 78.7 µM (inactive) | 40.1 µM (inactive) | 37.3 µM (inactive) | 57.7 µM (inactive) | 35.5 µM (inactive) | 50.7 µM (inactive) | 36.6 µM (inactive) | 69.3 µM (inactive) | 17 µM (inactive) | 61 µM (inactive) |
| CCCCCCCCCc1cc(-c2ccc(C=O)s2)sc1-c1ccc(C=O)s1 | 27.7 µM (inactive) | 3.56 µM (inactive) | 70.6 µM (inactive) | 28.7 µM (inactive) | 26.2 µM (inactive) | 24.4 µM (inactive) | 35.3 µM (inactive) | 22.6 µM (inactive) | 27.9 µM (inactive) | 37.8 µM (inactive) | 32.7 µM (inactive) | 20.1 µM (inactive) | 4.08 µM (inactive) | 36.6 µM (inactive) | 11.5 µM (inactive) | 10 µM (inactive) | 35.6 µM (inactive) | 26.7 µM (inactive) |
| CCOC(=O)N/N=C(/N)c1cccc([N+](=O)[O-])c1 | > 100 µM (inactive) | > 100 µM (inactive) | > 100 µM (inactive) | > 100 µM (inactive) | > 100 µM (inactive) | > 100 µM (inactive) | > 100 µM (inactive) | > 100 µM (inactive) | > 100 µM (inactive) | > 100 µM (inactive) | > 100 µM (inactive) | > 100 µM (inactive) | > 100 µM (inactive) | > 100 µM (inactive) | > 100 µM (inactive) | > 100 µM (inactive) | > 100 µM (inactive) | > 100 µM (inactive) |
| C[C@]1(O)CC(=O)c2c(c(-c3ccc4cc5c(c(O)c4c3O)C(=O)C[C@@](C)(O)C5)c3cccc(O)c3c2O)C1 | 3.48 µM (inactive) | 11.9 µM (inactive) | 11.2 µM (inactive) | 5.37 µM (inactive) | 4.91 µM (inactive) | 7 µM (inactive) | 5.89 µM (inactive) | 6.52 µM (inactive) | 2.58 µM (inactive) | 3.08 µM (inactive) | 4.86 µM (inactive) | 3.69 µM (inactive) | 5.56 µM (inactive) | 3.31 µM (inactive) | 6.37 µM (inactive) | 4.02 µM (inactive) | 4.58 µM (inactive) | 5.53 µM (inactive) |
| CN(C)CCNC(=O)c1nc([N+](=O)[O-])cn1C | > 100 µM (inactive) | > 100 µM (inactive) |  | > 100 µM (inactive) | > 100 µM (inactive) | > 100 µM (inactive) | > 100 µM (inactive) | > 100 µM (inactive) | > 100 µM (inactive) | > 100 µM (inactive) | > 100 µM (inactive) | > 100 µM (inactive) | > 100 µM (inactive) | > 100 µM (inactive) | > 100 µM (inactive) | > 100 µM (inactive) | > 100 µM (inactive) | > 100 µM (inactive) |
| CCN(CC)CC(=O)Nc1c(C(N)=O)nnn1Cc1cc(Cl)c(C(=O)c2ccc(Cl)cc2)c(Cl)c1 | 18.6 µM (inactive) | 17.3 µM (inactive) | 27.2 µM (inactive) | 16.1 µM (inactive) | 16.9 µM (inactive) | 31 µM (inactive) | 17.8 µM (inactive) | 34.9 µM (inactive) | 20.7 µM (inactive) | 16.8 µM (inactive) | 17.4 µM (inactive) | 14.6 µM (inactive) | 23.8 µM (inactive) | 18.8 µM (inactive) | 16.1 µM (inactive) | 19.5 µM (inactive) | 17.7 µM (inactive) | 30.8 µM (inactive) |
| CC(NC(=O)C(NC(=O)CNC(=O)OC(C)(C)C)C(C)C)C(=O)Oc1c(Cl)c(Cl)c(Cl)c(Cl)c1Cl (centres undefined) | 18.4 µM (inactive) | 50.7 µM (inactive) | 27.4 µM (inactive) |  | 22.6 µM (inactive) | 18.8 µM (inactive) | 23.8 µM (inactive) | 30.8 µM (inactive) | 16.3 µM (inactive) | 16 µM (inactive) | 14.5 µM (inactive) | 14 µM (inactive) | 71 µM (inactive) | 15.1 µM (inactive) | 15.5 µM (inactive) | 21.1 µM (inactive) | 19.6 µM (inactive) | 20.5 µM (inactive) |
| CCN(CC)c1ccc2cc(-c3csc(-c4ccc(N(C)C)cc4)n3)c(=O)oc2c1 | > 100 µM (inactive) | > 100 µM (inactive) | > 100 µM (inactive) | > 100 µM (inactive) | > 100 µM (inactive) | > 100 µM (inactive) | > 100 µM (inactive) | > 100 µM (inactive) | > 100 µM (inactive) | > 100 µM (inactive) | > 100 µM (inactive) |  | > 100 µM (inactive) | 67.9 µM (inactive) | > 100 µM (inactive) | > 100 µM (inactive) | > 100 µM (inactive) | > 100 µM (inactive) |
| O=C(CC(=O)Nc1ccccc1)NNC(c1cc(/N=N/c2ccc(Br)cc2)ccc1O)P(O)O (centres undefined) | 6.79 µM (inactive) | 2.06 µM (inactive) |  | 0.489 µM (active) | 2.73 µM (inactive) | 1.85 µM (inactive) | 4 µM (inactive) | > 10 µM (inactive) | 4.18 µM (inactive) | 0.975 µM (active) | 3.64 µM (inactive) | 3.28 µM (inactive) | 0.494 µM (active) | 1.81 µM (inactive) | 1.71 µM (inactive) | 3.51 µM (inactive) | 5.46 µM (inactive) | 3.48 µM (inactive) |
